Test results reported in ChEMBL document CHEMBL1134339, “New 1-aryl-3-(4-arylpiperazin-1-yl)propane derivatives, with dual action at 5-HT1A serotonin receptors and serotonin transporter, as a new class of antidepressants” (J Med Chem, 2001).

Experiments:
[1] = target: T1, 5-hydroxytryptamine receptor 1A (Rattus norvegicus, UniProt P19327); test: Binding affinity to 5-hydroxytryptamine 1A receptor (5-HT 1A receptor, serotonin receptor) from rat cortex using [3H]8-OH-DPAT as radioligand
T1 sequence (P19327 whole entry): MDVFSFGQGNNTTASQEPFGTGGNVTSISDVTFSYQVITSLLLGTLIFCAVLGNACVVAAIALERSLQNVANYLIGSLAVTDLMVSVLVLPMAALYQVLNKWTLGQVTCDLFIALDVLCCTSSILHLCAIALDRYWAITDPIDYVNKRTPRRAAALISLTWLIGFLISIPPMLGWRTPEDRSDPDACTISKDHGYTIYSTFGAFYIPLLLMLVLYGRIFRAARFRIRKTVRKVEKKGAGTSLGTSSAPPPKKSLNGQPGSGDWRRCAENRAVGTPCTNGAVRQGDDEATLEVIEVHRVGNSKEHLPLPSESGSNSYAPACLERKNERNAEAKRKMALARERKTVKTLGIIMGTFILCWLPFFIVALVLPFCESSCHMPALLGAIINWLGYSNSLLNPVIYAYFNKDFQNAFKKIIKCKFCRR

Rattus norvegicus = test: Effect on helpless behavior in rats and the number of escape failures was determined in shuttle-box session-2 (SB-2) at 1 mg/kg dose; format: functional
Mus musculus [2] = test: Effect on immobility time in the forced swimming test (FST) in mice at 1 mg/kg dose; format: functional
Mus musculus [3] = test: Time-dependent effect on 8-OH-DPAT-induced hypothermia (change in body temperature) after 60 min, in mice at 0.1 mg/kg dose; format: functional
[4] = target: T2, Adrenergic receptor alpha-1 (Rattus norvegicus, UniProt P15823+P23944+P43140); test: Affinity towards alpha-1 adrenergic receptor from rat cortex using [3H]prazosin radioligand (For prazosin Ki(nM)= […]+/-[…])
T2 sequence (P15823 whole entry): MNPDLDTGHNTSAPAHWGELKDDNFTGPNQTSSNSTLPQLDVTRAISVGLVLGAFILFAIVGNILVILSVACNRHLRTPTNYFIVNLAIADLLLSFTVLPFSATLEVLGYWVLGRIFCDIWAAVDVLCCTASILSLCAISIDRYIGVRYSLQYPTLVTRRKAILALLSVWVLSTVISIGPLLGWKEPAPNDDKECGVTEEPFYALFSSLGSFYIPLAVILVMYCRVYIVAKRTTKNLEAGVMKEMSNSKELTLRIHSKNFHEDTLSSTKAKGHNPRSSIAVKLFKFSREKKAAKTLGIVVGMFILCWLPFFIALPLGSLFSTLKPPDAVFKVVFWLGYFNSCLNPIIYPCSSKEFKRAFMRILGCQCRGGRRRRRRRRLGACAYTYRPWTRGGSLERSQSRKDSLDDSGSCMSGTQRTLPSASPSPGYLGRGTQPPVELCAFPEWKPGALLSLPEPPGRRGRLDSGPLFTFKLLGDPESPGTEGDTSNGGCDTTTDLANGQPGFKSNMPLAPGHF
T2 sequence (P23944 whole entry): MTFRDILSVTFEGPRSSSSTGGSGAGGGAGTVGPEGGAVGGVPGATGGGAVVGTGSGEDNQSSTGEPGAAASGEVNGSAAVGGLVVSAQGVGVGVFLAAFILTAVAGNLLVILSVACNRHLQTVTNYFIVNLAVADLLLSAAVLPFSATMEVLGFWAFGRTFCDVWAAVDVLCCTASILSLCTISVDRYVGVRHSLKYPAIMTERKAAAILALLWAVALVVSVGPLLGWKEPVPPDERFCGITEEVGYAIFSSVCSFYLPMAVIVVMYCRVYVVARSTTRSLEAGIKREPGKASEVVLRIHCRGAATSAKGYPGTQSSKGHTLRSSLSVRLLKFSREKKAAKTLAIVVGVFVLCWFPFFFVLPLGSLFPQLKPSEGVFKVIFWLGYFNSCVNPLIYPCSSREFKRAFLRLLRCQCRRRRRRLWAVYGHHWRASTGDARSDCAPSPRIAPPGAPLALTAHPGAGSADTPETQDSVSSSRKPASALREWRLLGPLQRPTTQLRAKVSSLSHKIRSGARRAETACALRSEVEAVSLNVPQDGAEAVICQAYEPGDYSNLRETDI
T2 sequence (P43140 whole entry): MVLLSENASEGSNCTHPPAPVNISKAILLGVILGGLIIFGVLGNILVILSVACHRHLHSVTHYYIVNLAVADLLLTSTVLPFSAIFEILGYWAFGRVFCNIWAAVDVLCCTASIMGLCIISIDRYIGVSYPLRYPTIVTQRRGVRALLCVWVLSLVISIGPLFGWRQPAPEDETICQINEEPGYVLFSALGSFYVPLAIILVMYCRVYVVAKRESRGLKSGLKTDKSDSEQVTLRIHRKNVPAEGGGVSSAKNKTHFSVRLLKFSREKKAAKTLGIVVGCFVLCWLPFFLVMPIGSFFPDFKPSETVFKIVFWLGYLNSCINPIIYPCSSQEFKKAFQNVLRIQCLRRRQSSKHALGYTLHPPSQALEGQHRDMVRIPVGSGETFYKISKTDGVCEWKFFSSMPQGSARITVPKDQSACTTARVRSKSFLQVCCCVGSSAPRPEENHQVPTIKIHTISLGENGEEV

Mus musculus [5] = test: Time-dependent effect on 8-OH-DPAT-induced hypothermia (change in body temperature) after 15 min, in mice at 0.5 mg/kg dose; format: functional
Mus musculus [6] = test: Time-dependent effect on 8-OH-DPAT-induced hypothermia (change in body temperature) after 60 min, in mice at 5 mg/kg dose; format: functional
Mus musculus [7] = test: Time-dependent effect on 8-OH-DPAT-induced hypothermia (change in body temperature) after 30 min, in mice at 0.5 mg/kg dose; format: functional
[8] = target: T3, 5-hydroxytryptamine receptor 1A (Homo sapiens) (UniProt P08908); conditions: HeLa
T3 sequence (whole entry): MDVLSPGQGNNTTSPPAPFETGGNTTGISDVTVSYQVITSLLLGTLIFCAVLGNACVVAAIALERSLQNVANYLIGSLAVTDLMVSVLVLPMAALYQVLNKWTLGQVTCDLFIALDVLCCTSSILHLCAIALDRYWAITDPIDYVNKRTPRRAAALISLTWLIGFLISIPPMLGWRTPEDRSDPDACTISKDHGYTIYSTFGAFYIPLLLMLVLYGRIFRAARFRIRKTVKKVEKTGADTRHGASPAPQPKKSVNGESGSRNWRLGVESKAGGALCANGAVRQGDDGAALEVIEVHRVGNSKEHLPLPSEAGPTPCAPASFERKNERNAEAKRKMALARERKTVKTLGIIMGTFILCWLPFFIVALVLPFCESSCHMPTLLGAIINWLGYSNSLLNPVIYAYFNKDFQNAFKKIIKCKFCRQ

Mus musculus [9] = test: Time-dependent effect on 8-OH-DPAT-induced hypothermia (change in body temperature) after 15 min, in mice at 0.1 mg/kg dose; format: functional
Mus musculus [10] = test: Time-dependent effect on 8-OH-DPAT-induced hypothermia (change in body temperature) after 60 min, in mice at 0.5 mg/kg dose; format: functional
[11] = target: T3, 5-hydroxytryptamine receptor 1A (Homo sapiens); conditions: HeLa; remark: listed apart in the source

Ki [4] | cAMP [8] | cAMP [11] | Ki [1] | SMILES | Ki ([1]; read-out: Ki) | No. of escape failures (Rattus norvegicus) | Immobility time (Mus musculus [2]) | Temperature change (Mus musculus [3]) | Temperature change (Mus musculus [5]) | Temperature change (Mus musculus [6]) | Temperature change (Mus musculus [7]) | Temperature change (Mus musculus [9]) | Temperature change (Mus musculus [10])
135 nM | < 15.4 pmol/well | 28.5 pmol/well |  | COc1ccccc1N1CCN(CCC(Oc2cccc3ccccc23)c2ccsc2)CC1 (stereo unspecified) | 180 nM | 1.3 | <91.6 s | -1.16 °C | -1.72 °C | -1.22 °C | -1.35 °C | -2.12 °C | -0.52 °C
6 nM | < 20.8 pmol/well | 27 pmol/well | 44 nM | COc1ccccc1N1CCN(CCC(=O)c2csc3ccccc23)CC1 |  | <4 | <77.1 s | -1.13 °C | <-1.58 °C | -1.27 °C | <-0.86 °C | -2.14 °C | <-0.47 °C

SMILES | Ki [4] | cAMP [8] | cAMP [11] | Ki [1] | Ki ([1]; read-out: Ki) | No. of escape failures (Rattus norvegicus) | Immobility time (Mus musculus [2]) | Temperature change (Mus musculus [3]) | Temperature change (Mus musculus [5]) | Temperature change (Mus musculus [6]) | Temperature change (Mus musculus [7]) | Temperature change (Mus musculus [9]) | Temperature change (Mus musculus [10])
COc1ccccc1N1CCN(CCC(O)c2csc3ccccc23)CC1 (stereo unspecified) | 35 nM | 18.1 pmol/well | 19.1 pmol/well |  | 20 nM | 2.3 | 101.8 s | -0.4 °C | -1.23 °C | -1.16 °C | -1.38 °C | -1.6 °C | -0.63 °C
